Design in all cases: key to the marks not given beside the values
What all share (conditions): purified antibody or control, 5 days incubation, calcein; four experiments in triplicate

The test system of data set [1] is MDA-MB-231 (MB-231) breast cancer cell line. The data set can be described thus: Live/Dead cytotoxicity assay.
The subject of data set [2] is PC-3 prostate cancer cell line.
The subject of data set [3] is MCF-7 breast cancer cell line.
In data set [4] the test system is NCI-H460 lung cancer cell line. The data set can be described thus: Live/Dead cytotoxicity assay.
Data set [5] deals with Hs888.Lu non-cancer cell line.
Data set [6] has as its system OVCAR-3 ovarian cancer cell line. The data set can be described thus: Live/Dead cytotoxicity assay.
Data set [7] deals with SW1116 colon cancer cell line.
In data set [8] the test system is SW620 colon cancer cell line. The data set can be described thus: Live/Dead cytotoxicity assay.
The subject of data set [9] is MDA-MB-468 (MB-468) breast cancer cell line. Put plainly: Live/Dead cytotoxicity assay.
For data set [10], the system named is CCD-27sk non-cancer cell line.
Data set [11] has as its system HT-29 colon cancer cell line. Put plainly: Live/Dead cytotoxicity assay.

Turning to `C[C@@H]1C[C@@H]([C@H](O)CC2CC(=O)NC(=O)C2)C(=O)[C@@H](C)C1` [CHX, Cycloheximide], in [1], the “In Vitro Cytotoxicity, MB-231” value is given as “++”. In addition, the “In Vitro Cytotoxicity, PC-3” value in data set [2] is “+++”. For the same compound, the “In Vitro Cytotoxicity, MCF-7” value in data set [3] was “+++”. Further, the “In Vitro Cytotoxicity, NCI H460” value in data set [4] was “++”. Besides, the “In Vitro Cytotoxicity, Hs888 Lu” value in data set [5] was “+++”. Besides, the “In Vitro Cytotoxicity, OVCAR” value in [6] is listed as “+++”. Also, in data set [7], the “In Vitro Cytotoxicity, SW1116” value was “+++”. Moreover, the “In Vitro Cytotoxicity, SW620” value in data set [8] is listed as “++”. In addition, the “In Vitro Cytotoxicity, MB-468” value in data set [9] is on record as “+++”. In addition, the “In Vitro Cytotoxicity, CCD 27sk” value in data set [10] is “+++”. Further, the “In Vitro Cytotoxicity, HT-29” value in data set [11] is listed as “+++”.

`[N-]=[N+]=[N-].[Na+]` [NaN3]: the “In Vitro Cytotoxicity, MB-231” value in data set [1] is recorded as “+++”. For the same compound, the “In Vitro Cytotoxicity, PC-3” value in data set [2] is listed as “+++”. In addition, in [3], the “In Vitro Cytotoxicity, MCF-7” value is reported as “+++”. The “In Vitro Cytotoxicity, NCI H460” value in [4] is on record as “+++”. In addition, the “In Vitro Cytotoxicity, OVCAR” value in data set [6] is “+++”. The “In Vitro Cytotoxicity, SW1116” value in [7] is “++”. The “In Vitro Cytotoxicity, MB-468” value in data set [9] was “+++”. For the same compound, the “In Vitro Cytotoxicity, HT-29” value in data set [11] is listed as “+++”.
